In the supplement of paper PMC13207355:

How the values were obtained:
Conditions in all cases: exposure time: 72 h
E13 [1] = patient-derived glioblastoma stem cells of classical subtype; assay: surviving fraction (nuclei count normalised to DMSO); higher = more cells surviving (less toxic)
E21 [2] = patient-derived glioblastoma stem cells of mesenchymal subtype; assay: as above
E28 [3] = patient-derived glioblastoma stem cells of classical subtype; assay: as above
E31 [4] = patient-derived glioblastoma stem cells of proneural subtype; assay: as above
E34 [5] = patient-derived glioblastoma stem cells of proneural subtype; assay: as above
E57 [6] = patient-derived glioblastoma stem cells of mesenchymal subtype; assay: as above
FT3469 [7] = normal neural stem cell line; assay: as above
E13 [8] = assay: phenotypic distance (Euclidean, principal components) from DMSO controls (arbitrary units); higher = stronger morphological change
E21 [9] = assay: as above
E28 [10] = assay: as above
E31 [11] = assay: as above
E34 [12] = assay: as above
E57 [13] = assay: as above
FT3469 [14] = assay: as above
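For phenotypic distance (Euclidean, principal components) from DMSO controls in this document: cell Painting imaging in 384-well plates, CellProfiler features reduced to at least 20 principal components, Euclidean distance versus same-plate DMSO vehicle wells (0.1% v/v), median over six images per well.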
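For surviving fraction (nuclei count normalised to DMSO) in this document: nuclei counted by high-content imaging of Hoechst-stained cells in laminin-coated 384-well plates, relative to 0.1% DMSO vehicle wells, with staurosporine as cell-death control.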

Nc1ncnc2c1c(-c1ccc(Oc3ccccc3)cc1)cn2C1CCCC1
Conditions | phenotypic distance | surviving fraction
E13 [1], 4.1 nM | – | 0.996
E13 [1], 12.3 nM | – | 1.07
E13 [1], 37 nM | – | 0.893
E13 [1], 111.1 nM | – | 0.884
E13 [1], 333.3 nM | – | 1.02
E13 [1], 1000 nM | – | 0.997
E13 [1], 3000 nM | – | 0.855
E13 [8], 4.1 nM | 0.425 | –
E13 [8], 12.3 nM | 1.04 | –
E13 [8], 37 nM | 0.606 | –
E13 [8], 111.1 nM | 0.653 | –
E13 [8], 333.3 nM | 0.532 | –
E13 [8], 1000 nM | 0.572 | –
E13 [8], 3000 nM | 0.738 | –
E21 [2], 4.1 nM | – | 0.864
E21 [2], 12.3 nM | – | 1.05
E21 [2], 37 nM | – | 1.03
E21 [2], 111.1 nM | – | 0.984
E21 [2], 333.3 nM | – | 0.967
E21 [2], 1000 nM | – | 1.01
E21 [2], 3000 nM | – | 0.85
E21 [9], 4.1 nM | 0.617 | –
E21 [9], 12.3 nM | 0.6 | –
E21 [9], 37 nM | 0.721 | –
E21 [9], 111.1 nM | 0.773 | –
E21 [9], 333.3 nM | 0.934 | –
E21 [9], 1000 nM | 1.32 | –
E21 [9], 3000 nM | 0.949 | –
E28 [3], 4.1 nM | – | 1.07
E28 [3], 12.3 nM | – | 0.954
E28 [3], 37 nM | – | 0.988
E28 [3], 111.1 nM | – | 0.704
E28 [3], 333.3 nM | – | 1.2
E28 [3], 1000 nM | – | 0.86
E28 [3], 3000 nM | – | 0.854
E28 [10], 4.1 nM | 0.587 | –
E28 [10], 12.3 nM | 0.603 | –
E28 [10], 37 nM | 0.442 | –
E28 [10], 111.1 nM | 0.847 | –
E28 [10], 333.3 nM | 0.677 | –
E28 [10], 1000 nM | 0.737 | –
E28 [10], 3000 nM | 0.765 | –
E31 [4], 4.1 nM | – | 1.06
E31 [4], 12.3 nM | – | 1.07
E31 [4], 37 nM | – | 0.999
E31 [4], 111.1 nM | – | 0.95
E31 [4], 333.3 nM | – | 0.97
E31 [4], 1000 nM | – | 0.936
E31 [4], 3000 nM | – | 0.884
E31 [11], 4.1 nM | 0.613 | –
E31 [11], 12.3 nM | 0.704 | –
E31 [11], 37 nM | 0.739 | –
E31 [11], 111.1 nM | 0.965 | –
E31 [11], 333.3 nM | 0.777 | –
E31 [11], 1000 nM | 1.23 | –
E31 [11], 3000 nM | 0.466 | –
E34 [5], 4.1 nM | – | 1.23
E34 [5], 12.3 nM | – | 0.986
E34 [5], 37 nM | – | 1.18
E34 [5], 111.1 nM | – | 1.03
E34 [5], 333.3 nM | – | 0.93
E34 [5], 1000 nM | – | 0.958
E34 [5], 3000 nM | – | 0.916
E34 [12], 4.1 nM | 0.654 | –
E34 [12], 12.3 nM | 0.927 | –
E34 [12], 37 nM | 0.674 | –
E34 [12], 111.1 nM | 0.841 | –
E34 [12], 333.3 nM | 0.534 | –
E34 [12], 1000 nM | 0.71 | –
E34 [12], 3000 nM | 0.746 | –
E57 [6], 4.1 nM | – | 0.986
E57 [6], 12.3 nM | – | 1.06
E57 [6], 37 nM | – | 1.08
E57 [6], 111.1 nM | – | 1.06
E57 [6], 333.3 nM | – | 1.03
E57 [6], 1000 nM | – | 0.942
E57 [6], 3000 nM | – | 0.951
E57 [13], 4.1 nM | 0.461 | –
E57 [13], 12.3 nM | 1.24 | –
E57 [13], 37 nM | 1 | –
E57 [13], 111.1 nM | 1.29 | –
E57 [13], 333.3 nM | 0.478 | –
E57 [13], 1000 nM | 0.867 | –
E57 [13], 3000 nM | 0.813 | –
FT3469 [7], 4.1 nM | – | 0.964
FT3469 [7], 12.3 nM | – | 1.04
FT3469 [7], 37 nM | – | 0.976
FT3469 [7], 111.1 nM | – | 0.901
FT3469 [7], 333.3 nM | – | 0.875
FT3469 [7], 1000 nM | – | 0.967
FT3469 [7], 3000 nM | – | 0.895
FT3469 [14], 4.1 nM | 0.487 | –
FT3469 [14], 12.3 nM | 1.13 | –
FT3469 [14], 37 nM | 0.764 | –
FT3469 [14], 111.1 nM | 0.833 | –
FT3469 [14], 333.3 nM | 1.17 | –
FT3469 [14], 1000 nM | 0.824 | –
FT3469 [14], 3000 nM | 0.929 | –
